Patent US4727074A, “2-(phenylmethylene)-1-(diaminoalkoxy) cycloalkanes and their pharmaceutical uses” (priority 1983, dated 1988)

Tests used:
[1] = Acute toxicity on mice (oral); format: in vivo; details: mouse, in vivo, 4 days observation
Procedure: (§1) (1) Acute toxicity on mice
(§2) The acute toxicity is determined on male and female white mice of the CFLP strain. The body weight of the animals amounts to 18-24 g. The test compound is administered orally in a dose of 20 ml/kg. After treatment the animals are placed in a mouse box and kept on scrapings litter at room temperature. The animals receive mouse fodder and tap water ad libitum.

[2] = system: Hexobarbital sleeping time; assay: animal or person; format: in vivo; details: for ED50: Mus musculus, iv, read-out: ED50 (narcosis potentiating effect); for Therapeutical index (narcosis potentiating): Table I, LD50/ED50, mice; for ED50 (narcosis potentiating effect): mice, Hexobarbital i.v., effect = sleeping time 2.5 times longer than control
Procedure: (2) Narcosis potentiating effect
To mice having a body weight of 20-24 g Hexobarbital is administered intravenously in a dose of […]. The sleeping time of the treated and control animals is measured.

writhing reactions = assay: Analgesic effect on mice (acetic acid writhing); format: in vivo; details: for ED50: Mus musculus, po, 1 h, read-out: ED50 (analgesic effect); for Therapeutical index (analgesic): Table II, LD50/ED50, mice; for ED50 (analgesic effect) / ED50 (analgesic effect), inactive: mice, oral; for ED50 (analgesic effect): one hour prior to 0.5% acetic acid
Procedure: (3) Analgesic effect on mice
To mice 0.4 ml of 0.5% acetic acid is […] administered. After 5 minutes the characteristic writhing reactions are counted for a period of 5 minutes. The test compound is administered orally one hour prior to the administration of acetic acid. The activity is expressed in the percentage of the data obtained for the control group.

[3] = system: white mice of the CFLP strain; assay: Acute toxicity on mice (oral); format: in vivo; details: 4 days observation
Procedure: as §1, §2

[4] = Acute toxicity i.v. (LD50 of Table IV); details: rat, in vivo
aconitine = assay: animal or person; format: in vivo, rats; details: for ED50: Rattus norvegicus, iv, read-out: Percental aconitine inhibition ED50; for Therapeutical index (antiarrhythmial): Table IV, LD50 i.v./ED50; for Percental inhibition of aconitine: rats, 2 minutes before aconitine
Procedure: (4) Antiarrhythmial effect on rats
The antiarrhythmial effect is determined on rats (both male and female; body weight 160-200 g) according to the modified test of Marmo et al. [Marmo et al.: Arzneimittelforschung 20, 12 (1970)]. Aconitine is intravenously administered in the form of a bolus injection. The ECG deviations are followed for 5 minutes by a standard II method. The test compound is administered intravenously 2 minutes before the addition of aconitine.
In Table IV the antiarrhythmial effect of a representative compound of the present invention is compared to that of a very active compound specifically disclosed in Hungarian Pat. No. 169,298. The test is carried out as disclosed in connection with Table III.

In the case of `C(=C1/CCCC/C1=N\OCCCN1CCN(c2ccccc2)CC1)/c1ccccc1` [Example 1, 2-[(E)-phenylmethylene]-1-[(E)-(4'-phenyl-piperazinyl-propoxyimino)]-cyclohexane], the LD50 at 96 h ([1]; po, Table I) is reported as 2000 mg/kg, the LD50 at 96 h ([1]; po, Table II) is reported as > 2000 mg/kg and the ED50 [2] is reported as 200 mg/kg. The “Therapeutical index (narcosis potentiating)” value [2] was 10.0, the ED50 (writhing reactions) was 200 mg/kg and the “Therapeutical index (analgesic)” value (writhing reactions) was > 10.0.
For `Clc1cccc(/C=C2\CCCCC\C2=N/OCCCN2CCN(Cc3ccccc3)CC2)c1` [Example 2, 2-[(E)-(m-chloro-phenylmethylene)]-1-[(E)-(4'-benzylpiperazinyl-propoxyimino)]-cycloheptane], the LD50 ([3]; Table II) was 740 mg/kg, the “Therapeutical index (analgesic)” value (writhing reactions) was 17.2 and the “ED50 (analgesic effect)” value (writhing reactions) was 43 mg/kg.
For `CC(C)N(CCCO/N=C1\CCCC\C1=C/c1ccc(Cl)cc1)C(C)C` [Example 3, 2-[(E)-(p-chloro-phenylmethylene)]-1-[(E)-(3'-diisopropylamino-propoxyimino)]-cyclohexane], the LD50 at 96 h ([1]; po, Table II) was 1100 mg/kg, the ED50 (writhing reactions) was 45 mg/kg and the “Therapeutical index (analgesic)” value (writhing reactions) was 24.2.
With `CC(C)N(CCCO/N=C1\CCCC\C1=C/c1ccccc1)C(C)C` [Example 4, 2-[(E)-phenylmethylene]-1-[(E)-(3'-diisopropylamino-propoxyimino)]-cyclohexane] the LD50 [4] was 12.5 mg/kg, the ED50 (aconitine) was 0.54 mg/kg and the “Therapeutical index (antiarrhythmial)” value (aconitine) was 23.14. The “Percental inhibition of aconitine” value (aconitine; dose 1 mg/kg i.v.) was 86.2 Percental.
For `CC(C)N(CCO/N=C1\CCCCC\C1=C\c1ccccc1)C(C)C` [Example 5, 2-[(Z)-phenylmethylene]-1-[(E)-(2'-diisopropylamino-ethoxyimino)]-cycloheptane], the LD50 at 96 h ([1]; po, Table I) was 800 mg/kg, the ED50 [2] was 40 mg/kg and the “Therapeutical index (narcosis potentiating)” value [2] was 20.0. For the same compound, the “Percental inhibition of aconitine” value (aconitine; dose 4 mg/kg i.v.) was 34.7 Percental.
For `CC(CO/N=C1\CCCCC\C1=C/c1ccccc1)N(C)C` (stereo not drawn) [Example 8, 2-[(E)-phenylmethylene]-1-[(E)-(2'-dimethylamino-2'-methyl-1-ethoxyimino)]-cycloheptane], the LD50 at 96 h ([1]; po, Table I) was 800 mg/kg, the ED50 [2] was 22 mg/kg and the “Therapeutical index (narcosis potentiating)” value [2] was 36.4.
In the case of `CC(CO/N=C1\CCCC\C1=C/c1ccccc1)N(C)C` (stereo not drawn) [Example 9, 2-[(E)-phenylmethylene]-1-[(E)-(2'-dimethylamino-2'-methyl-1-ethoxyimino)]-cyclohexane], the LD50 at 96 h ([1]; po, Table I) is reported as 600 mg/kg, the ED50 [2] is reported as 23 mg/kg and the “Therapeutical index (narcosis potentiating)” value [2] is reported as 26.0.
In the case of `CC(C)N(CCO/N=C1\CCCCCC\C1=C/c1ccccc1)C(C)C` [Example 10, 2-[(E)-phenylmethylene]-1-[(E)-(2'-diisopropylamino-ethoxyimino)]-cyclooctane], the LD50 at 96 h ([1]; po, Table II) is reported as 400 mg/kg, the ED50 (writhing reactions) is reported as 58 mg/kg and the “Therapeutical index (analgesic)” value (writhing reactions) is reported as 6.9. The “Percental inhibition of aconitine” value (aconitine; dose 4 mg/kg i.v.) was 57.6 Percental.
For `CN(C)CCCO/N=C1\CCCCCC\C1=C/c1ccccc1` [Example 11], the LD50 ([3]; Table I) was 1000 mg/kg, the LD50 ([3]; Table II) was 1000 mg/kg and the “Therapeutical index (narcosis potentiating)” value [2] was 500.0. For the same compound, the “ED50 (narcosis potentiating effect)” value [2] was 2 mg/kg, the “Therapeutical index (analgesic)” value (writhing reactions) was 6.7 and the “ED50 (analgesic effect)” value (writhing reactions) was 150 mg/kg.
For `CC(C)N(CCO/N=C1\CCCC\C1=C/c1ccccc1)C(C)C` [Example 12], the “Percental inhibition of aconitine” value (aconitine; dose 2 mg/kg i.v.) was 39.2 Percental.
With `CN(C)CCO/N=C1\CCCC\C1=C/c1ccc(Cl)cc1` [Example 13] the LD50 at 96 h ([1]; po, Table I) was 2000 mg/kg, the ED50 [2] was 10 mg/kg and the “Therapeutical index (narcosis potentiating)” value [2] was 200.0. The “Percental inhibition of aconitine” value (aconitine; dose 2 mg/kg i.v.) was 35.3 Percental.
With `CCN(CC)CC(=O)Nc1c(C)cccc1C` [Lidocaine, N,N-diethyl-2,6-dimethyl-acetanilide, reference compound] the “Percental inhibition of aconitine” value (aconitine; dose 4 mg/kg i.v.) was 23.5 Percental.
For `CCCC(C)(COC(N)=O)COC(N)=O` [Meprobamate, 2-methyl-2-n-propyl-1,3-propanediol-dicarbamate, reference compound], the LD50 at 96 h ([1]; Table I) was 1100 mg/kg, the ED50 [2] was 260 mg/kg and the “Therapeutical index (narcosis potentiating)” value [2] was 4.2.
Compound `CC(=O)Nc1ccc(O)cc1` [Paracetamol, 4-hydroxy-acetanilide, reference compound] has an ED50 (writhing reactions) of 180 mg/kg.
For `CN(C)CCCON=C1CCCCC1Cc1ccccc1` (stereo not drawn) [Reference compound A, 2-benzyl-1-(3'-dimethylamino-propoxy-imino)-cyclohexane, reference compound], the LD50 at 96 h ([1]; po, Table II) was 250 mg/kg and the “ED50 (narcosis potentiating effect)” value [2] was “inactive in a dose of 50 mg/kg”.
In the case of `COc1ccccc1C=C1CCCCC1=NOCC(C)CN(C)C` (stereo not drawn) [Reference compound C, 1-(2'-methyl-3'-dimethylaminopropoxyimino)-2-(o-methoxy-benzal)-cyclohexane, reference compound], the “ED50 (narcosis potentiating effect)” value [2] is reported as “inactive in a dose of 100 mg/kg”.
With `CN(C)CCCON=C1CCCCC1Cc1ccc(Cl)cc1` (stereo not drawn) [Reference compound E, 1-(3'-dimethylamino-propoxyimino)-2-(p-chlorobenzyl)-cyclohexane, reference compound] the “ED50 (narcosis potentiating effect)” value [2] was “inactive in a dose of 170 mg/kg”.
For `COc1ccc(C=C2CCCCC2=NOCCCN(C)C)cc1` [Reference compound F, 1-(3'-dimethylamino-propoxyimino)-2-(p-methoxybenzal)-cyclohexane, reference compound], the LD50 at 96 h ([1]; po, Table II) was 1750 mg/kg and the “ED50 (analgesic effect), inactive” value (writhing reactions; in a dose of 350 mg/kg) was “inactive”.
In the case of `CC(C)N(CCON=C1CCCCCC1=Cc1ccccc1)C(C)C` [Reference compound G, 2-benzal-1-(2'-diisopropylamino-ethoxyimino)-cycloheptane, reference compound], the LD50 at 96 h ([1]; po, Table II) is reported as 325 mg/kg, the LD50 [4] is reported as 21.2 mg/kg and the “ED50 (analgesic effect), inactive” value (writhing reactions; in a dose of 65 mg/kg) is reported as “inactive”. The ED50 (aconitine) was 2 mg/kg and the “Therapeutical index (antiarrhythmial)” value (aconitine) was 10.59.
